The values that follow come from ChEMBL document CHEMBL4219247, “Inhibitors of dihydrofolate reductase as antitumor agents: design, synthesis and biological evaluation of a series of novel nonclassical 6-substituted pyrido[3,2-d]pyrimidines with a three- to five-carbon bridge” (Bioorg Med Chem, 2018).

Assay [1] concerns HeLa. Description: Antiproliferative activity against human HeLa cells after 48 hrs by MTS assay. (Formazan colour is commonly taken as a measure of viable cells.)
Assay [2] has as its system HCT-116. Briefly: Antiproliferative activity against human HCT116 cells after 48 hrs by MTS assay. As to conditions: HCT-116, 48 h. Type of assay: functional, cell-based.
In assay [3] the target is T1, Dihydrofolate reductase (Homo sapiens, UniProt P00374).
T1 sequence (P00374 whole entry): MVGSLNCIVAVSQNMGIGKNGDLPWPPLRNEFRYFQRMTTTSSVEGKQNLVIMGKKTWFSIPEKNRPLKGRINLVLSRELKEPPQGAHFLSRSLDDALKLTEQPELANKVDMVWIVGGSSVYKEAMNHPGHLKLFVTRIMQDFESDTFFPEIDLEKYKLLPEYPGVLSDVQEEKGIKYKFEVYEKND
Briefly: Inhibition of recombinant human DHFR using dihydrofolate as substrate after 15 mins in presence of NADPH.

For assay [4], the system named is HL-60. Description: Antiproliferative activity against human HL60 cells after 48 hrs by MTS assay. To be noted: HL-60, 48 h. It counts as functional, cell-based.
Assay [5] relates to HL-60. Description: Induction of apoptosis in human HL60 cells assessed as early apoptotic cells at 0.1 uM after 24 hrs by Annexin V-FITC/propidium iodide staining based flow cytometry (reference value: 2.09%). It counts as functional.
For assay [6], the system named is HL-60. Briefly: Cell cycle arrest in human HL60 cells assessed as accumulation at G2 phase at 4 uM after 24 hrs by propidium iodide staining based flow cytometry (reference value: 13.56%). Type of assay: functional. (Flow cytometry measures light scatter and fluorescence of single cells or particles in a stream.)
The subject of assay [7] is HL-60. Description: Cell cycle arrest in human HL60 cells assessed as accumulation at G2 phase at 1 uM after 24 hrs by propidium iodide staining based flow cytometry (reference value: 13.56%). It counts as functional.
The subject of assay [8] is HL-60. Briefly: Upregulation of DHFR protein level in human HL60 cells at 0.125 uM after 48 hrs by Western blot method relative to control. It counts as functional. (In general: In western blotting, separated proteins are transferred to a membrane and probed.)
The subject of assay [9] is HL-60. Description: Induction of apoptosis in human HL60 cells assessed as live cells at 0.1 uM after 24 hrs by Annexin V-FITC/propidium iodide staining based flow cytometry (reference value: 90.7%). It counts as functional.
In assay [10] the test system is HL-60. Briefly: Induction of apoptosis in human HL60 cells assessed as necrotic cells at 0.1 uM after 24 hrs by Annexin V-FITC/propidium iodide staining based flow cytometry (reference value: 2.36%). It counts as functional.
The subject of assay [11] is HL-60. Briefly: Cell cycle arrest in human HL60 cells assessed as accumulation at G1 phase at 1 uM after 24 hrs by propidium iodide staining based flow cytometry (reference value: 28.69%). Type of assay: functional.
In assay [12] the test system is HL-60. Briefly: Induction of apoptosis in human HL60 cells assessed as live cells at 0.2 uM after 24 hrs by Annexin V-FITC/propidium iodide staining based flow cytometry (reference value: 90.7%). It counts as functional.
Assay [13] deals with HL-60. Description: Upregulation of DHFR protein level in human HL60 cells at 0.5 uM after 48 hrs by Western blot method relative to control. It counts as functional.
The subject of assay [14] is HL-60. Description: Induction of apoptosis in human HL60 cells assessed as late apoptotic cells at 0.2 uM after 24 hrs by Annexin V-FITC/propidium iodide staining based flow cytometry (reference value: 4.84%). It counts as functional.
Assay [15] relates to HL-60. Description: Cell cycle arrest in human HL60 cells assessed as accumulation at S phase at 4 uM after 24 hrs by propidium iodide staining based flow cytometry (reference value: 57.76%). Type of assay: functional.
The subject of assay [16] is HL-60. Briefly: Induction of apoptosis in human HL60 cells assessed as early apoptotic cells at 0.2 uM after 24 hrs by Annexin V-FITC/propidium iodide staining based flow cytometry (reference value: 2.09%). It counts as functional.
The test system of assay [17] is HL-60. Description: Induction of apoptosis in human HL60 cells assessed as late apoptotic cells at 0.1 uM after 24 hrs by Annexin V-FITC/propidium iodide staining based flow cytometry (reference value: 4.84%). Type of assay: functional.
Assay [18] relates to HL-60. Briefly: Cell cycle arrest in human HL60 cells assessed as accumulation at G1 phase at 4 uM after 24 hrs by propidium iodide staining based flow cytometry (reference value: 28.69%). It counts as functional.
Assay [19] deals with HL-60. Briefly: Upregulation of DHFR protein level in human HL60 cells after 48 hrs by Western blot method. Type of assay: functional, cell-based.
Assay [20] relates to HL-60. Description: Induction of apoptosis in human HL60 cells assessed as necrotic cells at 0.2 uM after 24 hrs by Annexin V-FITC/propidium iodide staining based flow cytometry (reference value: 2.36%). Type of assay: functional.
The test system of assay [21] is HL-60. Description: Upregulation of DHFR protein level in human HL60 cells at 0.25 uM after 48 hrs by Western blot method relative to control. It counts as functional.
Assay [22] concerns HL-60. Briefly: Cell cycle arrest in human HL60 cells assessed as accumulation at S phase at 1 uM after 24 hrs by propidium iodide staining based flow cytometry (reference value: 57.76%). Type of assay: functional.

Usually IC50 stands for the concentration that gives 50% inhibition. As to `Nc1nc(N)c2nc(CCC(O)CCc3ccccc3)ccc2n1` (stereo not drawn), the IC50 came to 65.1 µM in [1], 20.6 µM in assay [2], 2530 nM in assay [3] and 1230 nM in [4].
With `Nc1nc(N)c2nc(CCC(=O)c3ccccc3)ccc2n1`, the IC50 turned out to be 85.6 µM in assay [1], 20.9 µM in assay [2], 11200 nM in [3] and 8120 nM in [4].
As for `Nc1nc(N)c2nc(/C=C/CCCc3ccccc3)ccc2n1`, the IC50 was 17.6 µM in assay [1], 15.3 µM in assay [2], 2100 nM in assay [3] and 1310 nM in [4].
The like results for `Nc1nc(N)c2nc(/C=C/C=C/c3ccccc3)ccc2n1` were, in that order, 14.9 µM, 17.7 µM, 12300 nM and 6790 nM.
Take `CN(Cc1cnc2nc(N)nc(N)c2n1)c1ccc(C(=O)N[C@@H](CCC(=O)O)C(=O)O)cc1` [METHOTREXATE]: the values for the half-maximal inhibitory concentration (IC50) in assay [2] and in assay [4] were 0.13 µM and 25 nM, respectively.
With `Nc1nc(N)c2nc(/C=C/Cc3ccccc3)ccc2n1`, the 50% inhibitory concentration (IC50) in [1] is 25.3 µM; in assay [2] it was 13.3 µM; in assay [3] it was 590 nM; in assay [4] it was 350 nM.
As to `Nc1nc(N)c2nc(CCCCc3ccccc3)ccc2n1`, the IC50 in assay [1] worked out at 47.1 µM; in assay [2] it was 11 µM; in assay [3], 610 nM; in assay [4], 590 nM.
Regarding `Nc1nc(N)c2nc(/C=C/C(=O)/C=C/c3ccccc3)ccc2n1`, the IC50 in [1] was determined as 3.7 µM; in [2], 12 µM; in assay [3] it was 70500 nM; in assay [4] it was 1080 nM.
Take `Nc1nc(N)c2nc(CCCc3ccccc3)ccc2n1`: the Activity in assay [5] came out at 3.45%; in assay [6] it was 0%; in assay [7], 13.35%; in assay [9], 87.64%; in assay [10] it was 2.21%; in [11], 24.26%. In addition, the Activity in assay [12] is reported as 76.35%; in assay [14] it was 11.06%; in assay [15], 80.66%; in assay [16] it was 6.63%; in assay [17], 6.69%; in assay [18] it was 19.34%. Moreover, the Activity result in assay [19] was “Dose-dependent effect”; in assay [20] it was 5.96%; in assay [22], 62.39%. Besides, the entries for the “fold change (FC)” value in assay [8], in assay [13] and in assay [21] were 1.03, 1.98 and 1.62, respectively. In addition, the IC50 in assay [1] was 49.1 µM; in assay [2], 9.56 µM; in assay [3], 60 nM; in [4], 200 nM.
With `Nc1nc(N)c2nc(CCC(O)c3ccccc3)ccc2n1` (stereo not drawn), the IC50 turned out to be 74.8 µM in assay [1], 17.3 µM in assay [2], 2730 nM in [3] and 1520 nM in assay [4].
For `Nc1nc(N)c2nc(CCCCCc3ccccc3)ccc2n1`, the concentration for half-maximal inhibition (IC50) in assay [1] worked out at 40.8 µM; in assay [2], 11.7 µM; in [3], 700 nM; in assay [4], 780 nM.
Take `Nc1nc(N)c2nc(/C=C/C(=O)c3ccccc3)ccc2n1`: the IC50 in assay [1] was 3.28 µM; in assay [2], 10.2 µM; in assay [3], greater than 100000 nM; in assay [4], 1500 nM.
Take `Nc1nc(N)c2nc(CCC(=O)CCc3ccccc3)ccc2n1`: the 50% inhibitory concentration (IC50) in assay [1] stood at 77.5 µM; in assay [2] it was 32.8 µM; in [3], 7930 nM; in [4] it was 3740 nM.
